Data from patent EP1389461A1, “Pyrimidones with antiviral properties” (Axxima Pharmaceuticals Aktiengesellschaft, priority 2002, dated 2004).

Tested on: HCMV
Assay: HCMV replication in vitro
Assay type: cell-based, human cytomegalovirus (HCMV)
Conditions: Human betaherpesvirus 5

## Nc1nc(O)c2ncn(COC(CO)CO)c2n1 [ganciclovir]
  IC50: 3 to 4 µM
